The source made the active and inactive calls. The rule behind the calls is not given here.
Molecular target: T1, 2-5A-dependent ribonuclease (Homo sapiens) (UniProt Q05823)
T1 sequence (whole entry): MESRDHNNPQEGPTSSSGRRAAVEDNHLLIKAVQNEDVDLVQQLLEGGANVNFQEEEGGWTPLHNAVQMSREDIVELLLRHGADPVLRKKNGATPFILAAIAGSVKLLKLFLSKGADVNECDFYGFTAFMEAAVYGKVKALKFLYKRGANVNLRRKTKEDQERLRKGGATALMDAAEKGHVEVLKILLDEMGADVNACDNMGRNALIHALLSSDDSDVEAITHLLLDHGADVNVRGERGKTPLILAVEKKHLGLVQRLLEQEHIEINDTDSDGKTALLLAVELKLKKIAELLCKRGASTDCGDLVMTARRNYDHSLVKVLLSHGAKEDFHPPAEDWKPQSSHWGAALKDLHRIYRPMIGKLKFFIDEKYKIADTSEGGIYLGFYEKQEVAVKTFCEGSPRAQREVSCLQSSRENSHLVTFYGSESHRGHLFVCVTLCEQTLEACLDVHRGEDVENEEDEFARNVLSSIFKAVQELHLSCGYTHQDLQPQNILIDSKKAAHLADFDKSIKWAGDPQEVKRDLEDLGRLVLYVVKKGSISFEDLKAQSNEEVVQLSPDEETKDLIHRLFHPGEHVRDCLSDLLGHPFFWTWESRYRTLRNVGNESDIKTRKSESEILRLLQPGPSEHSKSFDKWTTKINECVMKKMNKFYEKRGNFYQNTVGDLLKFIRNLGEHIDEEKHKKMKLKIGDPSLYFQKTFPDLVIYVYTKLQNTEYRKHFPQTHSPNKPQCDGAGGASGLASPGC
Assay: Antagonist activity at human RNase L expressed in Escherichia coli BL21 (DE3) cells assessed as RNA cleavage using Cy5-C11-rUU-C7-BHQ2 as substrate by FRET assay in presence of natural activator pAAAA
Type: functional

Compound | inhibition
Nc1ncnc2c1ncn2[C@@H]1O[C@H](COP(=O)(O)CO[C@@H]2[C@H](O)[C@@H](COP(=O)(O)CO[C@@H]3[C@H](O)[C@@H](COP(=O)(O)O[C@@H]4[C@H](O)[C@@H](COP(=O)(O)O)O[C@H]4n4cnc5c(N)ncnc54)O[C@H]3n3cnc4c(N)ncnc43)O[C@H]2n2cnc3c(N)ncnc32)[C@@H](O)[C@H]1O | inactive
Nc1ncnc2c1ncn2[C@@H]1O[C@H](COCP(=O)(O)O[C@@H]2[C@H](O)[C@@H](COP(=O)(O)O[C@@H]3[C@H](O)[C@@H](COP(=O)(O)O[C@@H]4[C@@H](O)[C@@H](COCP(=O)(O)O)O[C@H]4n4cnc5c(N)ncnc54)O[C@H]3n3cnc4c(N)ncnc43)O[C@H]2n2cnc3c(N)ncnc32)[C@H](O)[C@H]1O | inactive
Nc1ncnc2c1ncn2[C@@H]1O[C@H](COCP(=O)(O)O[C@@H]2[C@H](O)[C@@H](COP(=O)(O)O[C@@H]3[C@H](O)[C@@H](COP(=O)(O)O[C@H]4[C@H](O)[C@@H](COCP(=O)(O)O)O[C@H]4n4cnc5c(N)ncnc54)O[C@H]3n3cnc4c(N)ncnc43)O[C@H]2n2cnc3c(N)ncnc32)[C@@H](O)[C@@H]1O | inactive
Nc1ncnc2c1ncn2[C@@H]1O[C@H](COP(=O)(O)O[C@@H]2[C@@H](O)[C@@H](COCP(=O)(O)O[C@@H]3[C@H](O)[C@@H](COP(=O)(O)O[C@@H]4[C@@H](O)[C@@H](COCP(=O)(O)O)O[C@H]4n4cnc5c(N)ncnc54)O[C@H]3n3cnc4c(N)ncnc43)O[C@H]2n2cnc3c(N)ncnc32)[C@@H](O)[C@H]1O | inactive
Nc1ncnc2c1ncn2[C@@H]1O[C@H](COP(=O)(O)CO[C@@H]2[C@@H](O)[C@@H](COP(=O)(O)O[C@@H]3[C@H](O)[C@@H](COP(=O)(O)CO[C@@H]4[C@@H](O)[C@@H](COP(=O)(O)O)O[C@H]4n4cnc5c(N)ncnc54)O[C@H]3n3cnc4c(N)ncnc43)O[C@H]2n2cnc3c(N)ncnc32)[C@@H](O)[C@H]1O | inactive
Nc1ncnc2c1ncn2[C@@H]1O[C@H](COCP(=O)(O)O[C@@H]2[C@H](O)[C@@H](COP(=O)(O)O[C@@H]3[C@@H](O)[C@@H](COCP(=O)(O)O[C@@H]4[C@H](O)[C@@H](COP(=O)(O)O)O[C@H]4n4cnc5c(N)ncnc54)O[C@H]3n3cnc4c(N)ncnc43)O[C@H]2n2cnc3c(N)ncnc32)[C@H](O)[C@H]1O | inactive
Nc1ncnc2c1ncn2[C@@H]1O[C@H](COP(=O)(O)O[C@@H]2[C@H](O)[C@@H](COP(=O)(O)CO[C@@H]3[C@H](O)[C@@H](COP(=O)(O)CO[C@@H]4[C@H](O)[C@@H](COP(=O)(O)O)O[C@H]4n4cnc5c(N)ncnc54)O[C@H]3n3cnc4c(N)ncnc43)O[C@H]2n2cnc3c(N)ncnc32)[C@@H](O)[C@H]1O | inactive
Nc1ncnc2c1ncn2[C@@H]1O[C@H](COP(=O)(O)CO[C@H]2[C@H](O)[C@@H](COP(=O)(O)CO[C@H]3[C@H](O)[C@@H](COP(=O)(O)CO[C@H]4[C@H](O)[C@@H](COP(=O)(O)O)O[C@H]4n4cnc5c(N)ncnc54)O[C@H]3n3cnc4c(N)ncnc43)O[C@H]2n2cnc3c(N)ncnc32)[C@@H](O)[C@H]1O | inactive
Nc1ncnc2c1ncn2[C@@H]1O[C@H](COP(=O)(O)CO[C@H]2[C@H](O)[C@@H](COP(=O)(O)CO[C@H]3[C@H](O)[C@@H](COP(=O)(O)O[C@@H]4[C@H](O)[C@@H](COP(=O)(O)O)O[C@H]4n4cnc5c(N)ncnc54)O[C@H]3n3cnc4c(N)ncnc43)O[C@H]2n2cnc3c(N)ncnc32)[C@@H](O)[C@H]1O | inactive
Nc1ncnc2c1ncn2[C@@H]1O[C@H](COP(=O)(O)CO[C@@H]2[C@@H](O)[C@@H](COP(=O)(O)CO[C@@H]3[C@@H](O)[C@@H](COP(=O)(O)CO[C@@H]4[C@@H](O)[C@@H](COP(=O)(O)O)O[C@H]4n4cnc5c(N)ncnc54)O[C@H]3n3cnc4c(N)ncnc43)O[C@H]2n2cnc3c(N)ncnc32)[C@@H](O)[C@H]1O | inactive
Nc1ncnc2c1ncn2[C@@H]1O[C@H](COCP(=O)(O)O[C@@H]2[C@H](O)[C@@H](COP(=O)(O)O[C@@H]3[C@H](O)[C@@H](COP(=O)(O)O[C@@H]4[C@H](O)[C@@H](COCP(=O)(O)O)O[C@H]4n4cnc5c(N)ncnc54)O[C@H]3n3cnc4c(N)ncnc43)O[C@H]2n2cnc3c(N)ncnc32)[C@@H](O)[C@H]1O | inactive
Nc1ncnc2c1ncn2[C@@H]1O[C@H](COP(=O)(O)CO[C@@H]2[C@H](O)[C@@H](COP(=O)(O)O[C@@H]3[C@H](O)[C@@H](COP(=O)(O)CO[C@@H]4[C@H](O)[C@@H](COP(=O)(O)O)O[C@H]4n4cnc5c(N)ncnc54)O[C@H]3n3cnc4c(N)ncnc43)O[C@H]2n2cnc3c(N)ncnc32)[C@@H](O)[C@H]1O | inactive
Nc1ncnc2c1ncn2[C@@H]1O[C@H](COP(=O)(O)O[C@@H]2[C@H](O)[C@@H](COCP(=O)(O)O[C@@H]3[C@H](O)[C@@H](COP(=O)(O)O[C@@H]4[C@H](O)[C@@H](COCP(=O)(O)O)O[C@H]4n4cnc5c(N)ncnc54)O[C@H]3n3cnc4c(N)ncnc43)O[C@H]2n2cnc3c(N)ncnc32)[C@@H](O)[C@H]1O | inactive

The next lines start with the values.

inhibition | Compound
inactive | Nc1ncnc2c1ncn2[C@@H]1O[C@H](COCP(=O)(O)O[C@@H]2[C@@H](O)[C@@H](COCP(=O)(O)O[C@@H]3[C@H](O)[C@@H](COP(=O)(O)O[C@@H]4[C@@H](O)[C@@H](COCP(=O)(O)O)O[C@H]4n4cnc5c(N)ncnc54)O[C@H]3n3cnc4c(N)ncnc43)O[C@H]2n2cnc3c(N)ncnc32)[C@H](O)[C@H]1O
inactive | Nc1ncnc2c1ncn2[C@@H]1O[C@H](COCP(=O)(O)O[C@@H]2[C@H](O)[C@@H](COCP(=O)(O)O[C@@H]3[C@H](O)[C@@H](COCP(=O)(O)O[C@@H]4[C@H](O)[C@@H](COCP(=O)(O)O)O[C@H]4n4cnc5c(N)ncnc54)O[C@H]3n3cnc4c(N)ncnc43)O[C@H]2n2cnc3c(N)ncnc32)[C@@H](O)[C@H]1O
inactive | Nc1ncnc2c1ncn2[C@@H]1O[C@H](COP(=O)(O)O[C@@H]2[C@H](O)[C@@H](COCP(=O)(O)O[C@@H]3[C@H](O)[C@@H](COCP(=O)(O)O[C@@H]4[C@H](O)[C@@H](COP(=O)(O)O)O[C@H]4n4cnc5c(N)ncnc54)O[C@H]3n3cnc4c(N)ncnc43)O[C@H]2n2cnc3c(N)ncnc32)[C@@H](O)[C@H]1O
inactive | Nc1ncnc2c1ncn2[C@@H]1O[C@H](COP(=O)(O)O[C@H]2[C@H](O)[C@@H](COCP(=O)(O)O[C@H]3[C@H](O)[C@@H](COCP(=O)(O)O[C@@H]4[C@H](O)[C@@H](COP(=O)(O)O)O[C@H]4n4cnc5c(N)ncnc54)O[C@H]3n3cnc4c(N)ncnc43)O[C@H]2n2cnc3c(N)ncnc32)[C@@H](O)[C@H]1O
inactive | Nc1ncnc2c1ncn2[C@@H]1O[C@H](COCP(=O)(O)O[C@@H]2[C@@H](O)[C@@H](COCP(=O)(O)O[C@@H]3[C@@H](O)[C@@H](COCP(=O)(O)O[C@@H]4[C@H](O)[C@@H](COP(=O)(O)O)O[C@H]4n4cnc5c(N)ncnc54)O[C@H]3n3cnc4c(N)ncnc43)O[C@H]2n2cnc3c(N)ncnc32)[C@H](O)[C@H]1O
inactive | Nc1ncnc2c1ncn2[C@@H]1O[C@H](COCP(=O)(O)O[C@H]2[C@H](O)[C@@H](COCP(=O)(O)O[C@@H]3[C@H](O)[C@@H](COP(=O)(O)O[C@@H]4[C@H](O)[C@@H](COP(=O)(O)O)O[C@H]4n4cnc5c(N)ncnc54)O[C@H]3n3cnc4c(N)ncnc43)O[C@H]2n2cnc3c(N)ncnc32)[C@@H](O)[C@@H]1O
inactive | Nc1ncnc2c1ncn2[C@@H]1O[C@H](COCP(=O)(O)O[C@@H]2[C@@H](O)[C@@H](COCP(=O)(O)O[C@@H]3[C@H](O)[C@@H](COP(=O)(O)O[C@@H]4[C@H](O)[C@@H](COP(=O)(O)O)O[C@H]4n4cnc5c(N)ncnc54)O[C@H]3n3cnc4c(N)ncnc43)O[C@H]2n2cnc3c(N)ncnc32)[C@H](O)[C@H]1O
inactive | Nc1ncnc2c1ncn2[C@@H]1O[C@H](COP(=O)(O)O[C@@H]2[C@@H](O)[C@@H](COCP(=O)(O)O[C@@H]3[C@@H](O)[C@@H](COCP(=O)(O)O[C@@H]4[C@@H](O)[C@@H](COCP(=O)(O)O)O[C@H]4n4cnc5c(N)ncnc54)O[C@H]3n3cnc4c(N)ncnc43)O[C@H]2n2cnc3c(N)ncnc32)[C@@H](O)[C@H]1O
inactive | Nc1ncnc2c1ncn2[C@@H]1O[C@H](COCP(=O)(O)O[C@@H]2[C@H](O)[C@@H](COP(=O)(O)O[C@@H]3[C@@H](O)[C@@H](COCP(=O)(O)O[C@@H]4[C@@H](O)[C@@H](COCP(=O)(O)O)O[C@H]4n4cnc5c(N)ncnc54)O[C@H]3n3cnc4c(N)ncnc43)O[C@H]2n2cnc3c(N)ncnc32)[C@H](O)[C@H]1O
inactive | Nc1ncnc2c1ncn2[C@@H]1O[C@H](COCP(=O)(O)O[C@@H]2[C@@H](O)[C@@H](COCP(=O)(O)O[C@@H]3[C@@H](O)[C@@H](COCP(=O)(O)O[C@@H]4[C@@H](O)[C@@H](COCP(=O)(O)O)O[C@H]4n4cnc5c(N)ncnc54)O[C@H]3n3cnc4c(N)ncnc43)O[C@H]2n2cnc3c(N)ncnc32)[C@H](O)[C@H]1O

Reference: ChEMBL document CHEMBL2057064, “Activation of human RNase L by 2'- and 5'-O-methylphosphonate-modified oligoadenylates” (Bioorg Med Chem Lett, 2012)
